Here are results for 21 compounds from paper PMC9118204, “Novel Dihydropyrimidinone Derivatives as Potential P-Glycoprotein Modulators” (ACS Omega, 2022).

In data set [1] the test system is colorectal adenocarcinoma (Caco-2) cell line. In words: MTT cytotoxicity assay against Caco-2 cells. The class given is cell-based. The conditions noted are these: for cytotoxic activity in words: halogen in the N-phenyl substituent. As for the experimental part: The colorectal adenocarcinoma Caco-2 cell line was generously provided by the Zydus Research Centre, Ahmedabad, Gujarat, India. These cells were maintained in DMEM (Hi-Media) containing 25 mM HEPES buffer, 1000 mg/L glucose, L-glutamine, sodium bicarbonate, and sodium pyruvate and supplemented with 20% heat-inactivated FBS (cell clone), 1% (v/v) minimal essential medium nonessential amino acids (Hi-Media), antibiotic, and antimycotic (penicillin, streptomycin, and amphotericin B; Hi-Media) in a humidified atmosphere of 5% CO2 at 37 °C. […] Caco-2 VB cells, which overexpress hPGP, were generated by growing Caco-2 cells in the presence of 1 μg/mL vinblastine. The drug was removed from the culture medium 2–3 days prior to using the Caco-2 VB cells in the biological assays.
Caco-2 cells were cultured in 96-well plates until they reached 70–80% confluency and then treated with the TRZ-DHPM derivatives (0.1–100 μM). Cytotoxicity was determined using an MTT (3-(4,5-dimethylthiazol-2-yl)-2,5-diphenyltetrazolium bromide) assay as described previously.[31]
In general terms: Tetrazolium assays rely on reduction of a dye to a coloured formazan, in cell work by metabolically active cells.

The target of data set [2] is T1, human P-glycoprotein (hPgp) (Homo sapiens, UniProt P08183).
T1 construct: Caco-2 VB cells, which overexpress hPGP, were generated by growing Caco-2 cells in the presence of 1 μg/mL vinblastine; endogenous in cells; host or cells: Caco-2 VB (vinblastine-resistant human colorectal adenocarcinoma Caco-2 cells)
T1 sequence (P08183 whole entry): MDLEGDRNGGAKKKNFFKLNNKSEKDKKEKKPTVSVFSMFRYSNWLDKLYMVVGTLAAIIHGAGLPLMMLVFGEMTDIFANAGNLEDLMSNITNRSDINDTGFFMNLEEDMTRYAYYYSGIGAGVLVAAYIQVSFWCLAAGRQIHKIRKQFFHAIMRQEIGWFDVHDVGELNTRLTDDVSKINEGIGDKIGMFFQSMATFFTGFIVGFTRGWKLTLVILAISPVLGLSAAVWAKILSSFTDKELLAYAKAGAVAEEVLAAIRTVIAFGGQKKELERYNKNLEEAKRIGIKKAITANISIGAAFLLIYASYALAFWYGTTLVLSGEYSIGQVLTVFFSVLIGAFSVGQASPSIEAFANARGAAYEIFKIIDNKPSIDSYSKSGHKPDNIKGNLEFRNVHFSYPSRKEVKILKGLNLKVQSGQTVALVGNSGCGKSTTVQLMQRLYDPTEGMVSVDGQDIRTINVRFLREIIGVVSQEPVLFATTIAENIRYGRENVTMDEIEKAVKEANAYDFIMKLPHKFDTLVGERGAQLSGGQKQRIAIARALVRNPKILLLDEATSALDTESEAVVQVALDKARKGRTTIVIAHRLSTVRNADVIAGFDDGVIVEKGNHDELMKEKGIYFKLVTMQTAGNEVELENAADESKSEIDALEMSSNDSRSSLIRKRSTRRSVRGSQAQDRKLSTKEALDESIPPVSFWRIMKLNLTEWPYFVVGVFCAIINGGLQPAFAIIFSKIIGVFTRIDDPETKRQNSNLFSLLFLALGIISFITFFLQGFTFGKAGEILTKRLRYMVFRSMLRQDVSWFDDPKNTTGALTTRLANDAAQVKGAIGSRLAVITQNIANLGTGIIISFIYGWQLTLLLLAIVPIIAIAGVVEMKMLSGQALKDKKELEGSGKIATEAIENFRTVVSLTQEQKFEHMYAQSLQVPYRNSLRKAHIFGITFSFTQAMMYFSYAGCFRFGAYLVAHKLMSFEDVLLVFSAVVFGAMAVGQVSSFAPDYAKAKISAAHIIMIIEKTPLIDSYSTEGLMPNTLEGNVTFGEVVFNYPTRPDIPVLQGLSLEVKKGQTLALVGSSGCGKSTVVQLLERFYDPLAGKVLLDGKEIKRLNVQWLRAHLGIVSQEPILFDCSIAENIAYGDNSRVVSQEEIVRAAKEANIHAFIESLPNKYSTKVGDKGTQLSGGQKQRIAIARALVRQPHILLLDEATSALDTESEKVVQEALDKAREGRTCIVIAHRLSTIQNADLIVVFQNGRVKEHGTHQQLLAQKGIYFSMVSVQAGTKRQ
The experiment in a line: hPgp-mediated calcein-AM efflux assay in Caco-2 VB cells. The note with it: for EC50: Caco-2 VB cells, calcein-AM, read-out: inhibition of calcein extrusion, EC50. It counts as cell-based. As for the experimental part: (§1) In this assay, hydrolysis of intracellular calcein-AM to calcein by endogenous cellular esterases causes the cell to become highly fluorescent (see Figure S1 in Supporting Information).
The colorectal adenocarcinoma Caco-2 cell line was generously provided by the Zydus Research Centre, Ahmedabad, Gujarat, India. […] Caco-2 VB cells, which overexpress hPGP, were generated by growing Caco-2 cells in the presence of 1 μg/mL vinblastine. The drug was removed from the culture medium 2–3 days prior to using the Caco-2 VB cells in the biological assays.
Each well contained 100 μL of cells in culture medium, 50 μL of a solution containing the TRZ-DPHM derivative, and 50 μL of calcein-AM (total volume, 200 μL). The final concentration of putative hPGP inhibitor in each assay ranged from 0.01 to 30 μg/mL. […] Caco-2 cells were used as a negative control (Figure S1). […] PBS was used for all dilutions. All experiments were performed in triplicate.
The effectiveness of inhibitors on Pgp efflux activity, i.e., calcein retention was calculated by the following equation [drawing 1] where FT is the fluorescence of treated cells and FU is the fluorescence of untreated cells.

For data set [3], the target named is T2, hPgp (Homo sapiens, UniProt P08183).
T2 construct: Caco-2 VB cells, which overexpress hPGP, were generated by growing Caco-2 cells in the presence of 1 μg/mL vinblastine; endogenous in cells; host or cells: Caco-2 VB (vinblastine-resistant human colorectal adenocarcinoma Caco-2 cells)
T2 sequence (P08183 whole entry): as above
In words: Fluorescence microscopy imaging of intracellular calcein in Caco-2 VB cells. The class given is cell-based. The note with it: for intracellular calcein retention by fluorescence microscopy: Caco-2-VB cells, 1 μM calcein-AM, 30 min, concentration = EC50.
Text: as §1
Full details are provided in the Supporting Information.

Setting [4] is: Homo sapiens, Caco-2 cell line (Table S3).
Where [5] appears, read: Homo sapiens, Caco-2 cell line, MTT assay (Table 1).

Each structure is given as a SMILES string.

In general, IC50 refers to the concentration needed to halve the response being measured. The EC50 is the concentration that produces a half-maximal response. A word on the melting point: it is the temperature of the solid-liquid transition.

In the case of `CC(=O)C1=C(C)NC(=O)NC1c1ccccc1OCc1cn(-c2ccccc2)nn1` (stereo not drawn) [6aa′, 5-Acetyl-6-methyl-4-(2-((1-phenyl-1H-1,2,3-triazol-4-yl)methoxy)phenyl)-3,4-dihydropyrimidin-2(1H)-one], the melting point lay within 145 to 147 °C. 1000 ± 300 nM corresponded to half-maximal inhibition in data set [1] (setting [4]) (IC50). In data set [1] (setting [5]), this compound registered an IC50 of 1100 ± 200 nM. Further, in data set [2], the EC50 was 12.56 ± 0.08 µM.

The compound `CC(=O)C1=C(C)NC(=O)NC1c1ccccc1OCc1cn(-c2ccccc2[N+](=O)[O-])nn1` (stereo not drawn) [6ab′, 5-Acetyl-6-methyl-4-(2-((1-(2-nitrophenyl)-1H-1,2,3-triazol-4-yl)methoxy)phenyl)-3,4-dihydropyrimidin-2(1H)-one] came in with a melting point of 133 to 135 °C. It took 1300 ± 800 nM to reach half-maximal inhibition in data set [1] (setting [5]) (IC50). The EC50 in data set [2] was 15.42 ± 0.06 µM. The “decrease in potency on replacing chlorine by nitro group” value in data set [2] (relative to 6ad′, calcein-AM assay) was 5 fold.

Regarding `CC(=O)C1=C(C)NC(=O)NC1c1ccccc1OCc1cn(-c2ccc([N+](=O)[O-])cc2)nn1` (stereo not drawn) [6ac′, 5-Acetyl-6-methyl-4-(2-((1-(4-nitrophenyl)-1H-1,2,3-triazol-4-yl)methoxy)phenyl)-3,4-dihydropyrimidin-2(1H)-one], the melting point was 148 to 150 °C. In data set [1] (setting [4]), the IC50 is 2000 ± 530 nM.

Consider `CC(=O)C1=C(C)NC(=O)NC1c1ccccc1OCc1cn(-c2cccc(Cl)c2)nn1` (stereo not drawn) [6ad′, 5-Acetyl-4-(2-((1-(3-chlorophenyl)-1H-1,2,3-triazol-4-yl)methoxy)phenyl)-6-methyl-3,4-dihydropyrimi-din-2(1H)-one], for which the melting point lay within 130 to 132 °C. Besides, in data set [1] (Caco-2 cell line), the “cytotoxic activity in words” value is recorded as “sub-micromolar”. The IC50 in data set [1] (setting [5]) came out at 570 ± 30 nM. Besides, the “intracellular calcein retention by fluorescence microscopy” value in data set [3] is on record as “confirmed intracellular calcein retention”. Also, the “modulation of hPgp function compared with cyclosporin A or verapamil (statistical analysis)” value in data set [3] (calcein retention, p < 0.0001) is on record as “better modulator of hPgp function”. The EC50 in data set [2] was 3.14 ± 0.03 µM.

In data set [1] (Caco-2 cell line (Table S3)), `CC(=O)C1=C(C)NC(=O)NC1c1ccccc1OCc1cn(-c2cccc(Br)c2)nn1` (stereo not drawn) [6ae′] gave an IC50 of 2000 ± 1200 nM.

`CC(=O)C1=C(C)NC(=O)NC1c1ccccc1OCc1cn(-c2c(Cl)cc(Cl)cc2Cl)nn1` (stereo not drawn) [6af′, 5-Acetyl-6-methyl-4-(2-((1-(2,4,6-trichlorophenyl)-1H-1,2,3-triazol-4-yl)methoxy)phenyl)-3,4-dihydro-pyrimidin-2(1H)-one] displayed a melting point of 139 to 141 °C. Besides, in data set [1] (setting [4]), the 50% inhibitory concentration (IC50) is 3700 ± 300 nM.

As for `CC(=O)C1=C(C)NC(=O)NC1c1ccc(OCc2cn(-c3ccccc3)nn2)cc1` (stereo not drawn) [6ba′, 5-Acetyl-6-methyl-4-(4-((1-phenyl-1H-1,2,3-triazol-4-yl)methoxy)phenyl)-3,4-dihydropyrimidin-2(1H)-one], the melting point fell in the range of 133 to 135 °C. The IC50 in data set [1] (setting [4]) was determined as 2200 ± 200 nM.

With `CC(=O)C1=C(C)NC(=O)NC1c1ccc(OCc2cn(-c3ccccc3[N+](=O)[O-])nn2)cc1` (stereo not drawn) [6bb′, 5-Acetyl-6-methyl-4-(4-((1-(2-nitrophenyl)-1H-1,2,3-triazol-4-yl)methoxy)phenyl)-3,4-dihydropyrimidin-2(1H)-one], the melting point lay in the range of 157 to 159 °C. Also, in data set [1] (setting [4]), the IC50 is 1600 ± 100 nM.

With `CC(=O)C1=C(C)NC(=O)NC1c1ccc(OCc2cn(-c3ccc([N+](=O)[O-])cc3)nn2)cc1` (stereo not drawn) [6bc′, 5-Acetyl-6-methyl-4-(4-((1-(4-nitrophenyl)-1H-1,2,3-triazol-4-yl)methoxy)phenyl)-3,4-dihydropyrimidin-2(1H)-one], the melting point was in the range of 134 to 136 °C. Further, in data set [1] (setting [4]), the IC50 was found to be 2440 ± 40 nM.

Turning to `CC(=O)C1=C(C)NC(=O)NC1c1ccc(OCc2cn(-c3cccc(Cl)c3)nn2)cc1` (stereo not drawn) [6bd′, 5-Acetyl-4-(4-((1-(3-chlorophenyl)-1H-1,2,3-triazol-4-yl)methoxy)phenyl)-6-methyl-3,4-dihydropyrimidin-2(1H)-one], the melting point lay within 142 to 144 °C. The “cytotoxic activity in words” value in data set [1] (Caco-2 cell line) was “sub-micromolar”. Besides, the IC50 in data set [1] (setting [5]) is 760 ± 60 nM. Also, in data set [2], the EC50 is 4.8 ± 0.2 µM.

As to `CC(=O)C1=C(C)NC(=O)NC1c1ccc(OCc2cn(-c3cccc(Br)c3)nn2)cc1` (stereo not drawn) [6be′, 5-Acetyl-4-(4-((1-(3-bromophenyl)-1H-1,2,3-triazol-4-yl)methoxy)phenyl)-6-methyl-3,4-dihydropyrimidin-2(1H)-one], the melting point fell in the range of 138 to 140 °C. In addition, in data set [1] (Caco-2 cell line), the “cytotoxic activity in words” value is “sub-micromolar”. This compound also came in with an IC50 in data set [1] (setting [5]) of 800 ± 100 nM. For the same compound, the EC50 in data set [2] was 9.25 ± 0.02 µM.

The compound `CC(=O)C1=C(C)NC(=O)NC1c1ccc(OCc2cn(-c3c(Cl)cc(Cl)cc3Cl)nn2)cc1` (stereo not drawn) [6bf′, 5-Acetyl-6-methyl-4-(4-((1-(2,4,6-trichlorophenyl)-1H-1,2,3-triazol-4-yl)methoxy)phenyl)-3,4-dihydro-pyrimidin-2(1H)-one] came in with a melting point of 135 to 137 °C. In data set [1] (setting [4]), this compound returned an IC50 of 1500 ± 70 nM.

With `COc1ccc(-n2cc(COc3ccc(C4NC(=O)NC(C)=C4C(C)=O)cc3)nn2)c(OC)c1` (stereo not drawn) [6bh′, 5-Acetyl-4-(4-((1-(2,4-dimethoxyphenyl)-1H-1,2,3-triazol-4-yl)methoxy)phenyl)-6-methyl-3,4-dihydro-pyrimidin-2(1H)-one], the melting point was 140 to 142 °C. Besides, it took 600 ± 200 nM to reach half-maximal inhibition in data set [1] (setting [5]) (IC50). Moreover, the EC50 in data set [2] was 4.2 ± 0.2 µM.

As for `CC(=O)C1=C(C)NC(=O)NC1c1cc(Br)cc(Br)c1OCc1cn(-c2ccccc2)nn1` (stereo not drawn) [6ca′, 5-Acetyl-4-(3,5-dibromo-2-((1-phenyl-1H-1,2,3-triazol-4-yl)methoxy)phenyl)-6-methyl-3,4-dihydropyrimidin-2(1H)-one], the melting point fell in the range of 157 to 159 °C. Moreover, in data set [1] (setting [5]), the IC50 is 900 ± 100 nM. Further, in data set [3], the “intracellular calcein retention by fluorescence microscopy” value is “confirmed intracellular calcein retention”. In data set [2], the EC50 was 4 ± 0.2 µM.

In turn, `CC(=O)C1=C(C)NC(=O)NC1c1cc(Br)cc(Br)c1OCc1cn(-c2ccc([N+](=O)[O-])cc2)nn1` (stereo not drawn) [6cc′, 5-Acetyl-4-(3,5-dibromo-2-((1-(4-nitrophenyl)-1H-1,2,3-triazol-4-yl)methoxy)phenyl)-6-methyl-3,4-dihydro-pyrimidin-2(1H)-one] showed a melting point of 165 to 167 °C. The same compound gave an IC50 in data set [1] (setting [5]) of 1250 ± 80 nM. In addition, the EC50 in data set [2] is 8.9 ± 0.1 µM.

As to `COc1cc(C2NC(=O)NC(C)=C2C(C)=O)ccc1OCc1cn(-c2ccccc2)nn1` (stereo not drawn) [6da′, 5-Acetyl-4-(3-methoxy-4-((1-phenyl-1H-1,2,3-triazol-4-yl)methoxy)phenyl)-6-methyl-3,4-dihydropyrimidin-2(1H)-one], the melting point fell in the range of 151 to 153 °C. The compound further returned an IC50 in data set [1] (setting [4]) of 2560 ± 40 nM.

For `COc1cc(C2NC(=O)NC(C)=C2C(C)=O)ccc1OCc1cn(-c2ccccc2[N+](=O)[O-])nn1` (stereo not drawn) [6db′, 5-Acetyl-4-(3-methoxy-4-((1-(2-nitrophenyl)-1H-1,2,3-triazol-4-yl)methoxy)phenyl)-6-methyl-3,4-dihydropyri-midin-2(1H)-one], in data set [1] (Caco-2 cell line (Table S3)), the IC50 worked out at 2290 ± 90 nM.

`COc1cc(C2NC(=O)NC(C)=C2C(C)=O)ccc1OCc1cn(-c2ccc([N+](=O)[O-])cc2)nn1` (stereo not drawn) [6dc′, 5-Acetyl-4-(3-methoxy-4-((1-(4-nitrophenyl)-1H-1,2,3-triazol-4-yl)methoxy)phenyl)-6-methyl-3,4-dihydro-pyrimidin-2(1H)-one]: the melting point was in the range of 159 to 161 °C. Moreover, the midpoint of inhibition in data set [1] (setting [4]), the IC50, lay at 2970 ± 30 nM.

Take `N.N.O=C([O-])C1(C(=O)[O-])CCC1.[Pt+2]` [carboplatin, reference compound]: in data set [1] (Caco-2 cell line, MTT assay (Table 1)), the IC50 was found to be 7000 ± 2000 nM.

The compound `COc1cccc2c1C(=O)c1c(O)c3c(c(O)c1C2=O)C[C@@](O)(C(C)=O)C[C@@H]3O[C@H]1C[C@H](N)[C@H](O)[C@H](C)O1` [daunorubicin, reference compound] had an IC50 in data set [1] (setting [5]) of 14000 ± 2000 nM.

On to `Nc1ccn([C@@H]2O[C@H](CO)[C@@H](O)C2(F)F)c(=O)n1` [gemcitabine, reference compound], for which the results for the IC50 in data set [1] (setting [4]) and in data set [1] (setting [5]) were 4500 ± 980 nM and 5000 ± 1000 nM, respectively.
